Data from patent US11986493B2 (University of Pittsburgh—Of the Commonwealth System of …, priority 2013, dated 2024).

Assays:
[1] = test system: subjects with pulmonary hypertension (WHO group I PAH, WHO group III PH); experiment: Right heart catheterization: right heart/pulmonary artery hemodynamics, thermodilution cardiac output, PVR and SVR after inhaled NO and nebulized nitrite; format: in vivo, human
Method: A total of 6 subjects with a confirmed diagnosis of pulmonary hypertension and meeting all inclusion/exclusion criteria were enrolled in the study which entailed a single right heart catheterization. The study population consisted of subjects with WHO group I PAH (n=3) and subjects with WHO group III PH (n=3) which received the dose escalation paradigm:
(§1) During the study right heart/pulmonary artery hemodynamics were measured as well as noninvasive systemic blood pressure monitoring and simultaneous RV echocardiography. Subjects were tested for the changes in pulmonary vascular resistance (PVR) measured by right heart catheterization and using thermodilution cardiac output measurement at time zero, at times 15, 30 and 45 minutes after completion of each nebulization dose.
Following right heart catheterization, the patient was stabilized for 20 minutes. Baseline blood collections and hemodynamic measurements were performed, followed by treatment with 40 ppm inhaled NO gas for […] with repeat hemodynamic measurements performed.
After stopping inhaled NO gas, a single dose of sildenafil was given if patients were on background sildenafil therapy at previously prescribed doses. 45-minutes after sildenafil dose baseline hemodynamics were performed.
Subjects were monitored carefully during and after the study treatment.
The study was conducted at the 3rd FL Catheterization Laboratory at Presbyterian Hospital of the University of Pittsburgh Medical Center (UPMC). Baseline vasoreactivity was recorded after Inhaled NO at 40 ppm for […]. […] Subjects were instructed to breathe as calmly, and deeply as possible until no more mist was formed in the nebulizer chamber. Subjects were also instructed to hold their breath for approximately 10 seconds after inhalation to allow the study drug to reach deep into the lungs.

[2] = test system: subjects with pulmonary hypertension; experiment: Systemic blood pressure (noninvasive) and heart rate monitoring during the study
Method: as §1
Subjects were monitored closely for changes in blood pressure during the study. […] Subjects were continued to be monitored closely every 10 minutes for 2 hours.

[3] = test system: subjects with pulmonary hypertension; experiment: Oxygen saturation by pulse oximeter and methemoglobin by continuous percutaneous co-oximetry; format: in vivo, human; set-up: Syst O2sat: unit not given here
Method: Oxygen saturation measured by pulse oximeter and methemoglobin levels monitored by continuous percutaneous co-oximetry prior to dose administration and through 4 hours post-dose were monitored closely.

[4] = 40 ppm inhaled NO, some patients (non-responsive to inhaled NO)

With nitric oxide [iNO, reference compound] the “reduction in PCWP from baseline” value [1, 4] was “did not show a meaningful reduction”, the “reduction in RA from baseline” value [1, 4] was “did not show a meaningful reduction” and the CI ([1]; Patient 1, 40 ppm inhaled NO) was 2.54. For the same substance, the CO ([1]; Patient 1, 40 ppm inhaled NO) was 4.91, the PA sat ([1]; Patient 1, 40 ppm inhaled NO) was 68 and the PAD ([1]; Patient 1, 40 ppm inhaled NO) was 25. For the same substance, the PAS ([1]; Patient 1, 40 ppm inhaled NO) was 73, the PCWP ([1]; Patient 1, 40 ppm inhaled NO) was 14 and the PVR ([1]; Patient 1, 40 ppm inhaled NO) was 5.50. The PVR/SVR ([1]; Patient 1, 40 ppm inhaled NO) was 0.40, the RA ([1]; Patient 1, 40 ppm inhaled NO) was 12 and the SVR ([1]; Patient 1, 40 ppm inhaled NO) was 13.78. For the same substance, the TPR ([1]; Patient 1, 40 ppm inhaled NO) was 8.35, the mPAP ([1]; Patient 1, 40 ppm inhaled NO) was 41.01 and the CI ([1]; Patient 2, 40 ppm inhaled NO) was 3.47. It also gave a CO ([1]; Patient 2, 40 ppm inhaled NO) of 6.7, a PA sat ([1]; Patient 2, 40 ppm inhaled NO) of 68 and a PAD ([1]; Patient 2, 40 ppm inhaled NO) of 13. It also gave a PAS ([1]; Patient 2, 40 ppm inhaled NO) of 45, a PCWP ([1]; Patient 2, 40 ppm inhaled NO) of 10 and a PVR ([1]; Patient 2, 40 ppm inhaled NO) of 2.04. The PVR/SVR ([1]; Patient 2, 40 ppm inhaled NO) was 0.17, the RA ([1]; Patient 2, 40 ppm inhaled NO) was 7 and the SVR ([1]; Patient 2, 40 ppm inhaled NO) was 11.99. For the same substance, the TPR ([1]; Patient 2, 40 ppm inhaled NO) was 3.53, the mPAP ([1]; Patient 2, 40 ppm inhaled NO) was 23.67 and the CI ([1]; Patient 3, 40 ppm inhaled NO) was 3.14. It also gave a CO ([1]; Patient 3, 40 ppm inhaled NO) of 6.53, a PAD ([1]; Patient 3, 40 ppm inhaled NO) of 20 and a PAS ([1]; Patient 3, 40 ppm inhaled NO) of 69. For the same substance, the PCWP ([1]; Patient 3, 40 ppm inhaled NO) was 14, the PVR ([1]; Patient 3, 40 ppm inhaled NO) was 3.42 and the PVR/SVR ([1]; Patient 3, 40 ppm inhaled NO) was 0.35. It also gave an RA ([1]; Patient 3, 40 ppm inhaled NO) of 11, an SVR ([1]; Patient 3, 40 ppm inhaled NO) of 9.65 and a TPR ([1]; Patient 3, 40 ppm inhaled NO) of 5.56. It also gave a mPAP ([1]; Patient 3, 40 ppm inhaled NO) of 36.34, a CI ([1]; Patient 4, 40 ppm inhaled NO) of 2.98 and a CO ([1]; Patient 4, 40 ppm inhaled NO) of 5.21. For the same substance, the PAD ([1]; Patient 4, 40 ppm inhaled NO) was 21, the PAS ([1]; Patient 4, 40 ppm inhaled NO) was 63 and the PCWP ([1]; Patient 4, 40 ppm inhaled NO) was 7. The PVR ([1]; Patient 4, 40 ppm inhaled NO) was 5.38, the PVR/SVR ([1]; Patient 4, 40 ppm inhaled NO) was 0.29 and the RA ([1]; Patient 4, 40 ppm inhaled NO) was 3. The SVR ([1]; Patient 4, 40 ppm inhaled NO) was 18.30, the TPR ([1]; Patient 4, 40 ppm inhaled NO) was 6.72 and the mPAP ([1]; Patient 4, 40 ppm inhaled NO) was 35.00. It also gave a CI ([1]; Patient 5, 40 ppm inhaled NO) of 2.85, a CO ([1]; Patient 5, 40 ppm inhaled NO) of 5.05 and a PAD ([1]; Patient 5, 40 ppm inhaled NO) of 17. The PAS ([1]; Patient 5, 40 ppm inhaled NO) was 64, the PCWP ([1]; Patient 5, 40 ppm inhaled NO) was 14 and the PVR ([1]; Patient 5, 40 ppm inhaled NO) was 3.70. The PVR/SVR ([1]; Patient 5, 40 ppm inhaled NO) was 0.30, the RA ([1]; Patient 5, 40 ppm inhaled NO) was 5 and the RVD ([1]; Patient 5, 40 ppm inhaled NO) was 5. For the same substance, the RVS ([1]; Patient 5, 40 ppm inhaled NO) was 66, the SVR ([1]; Patient 5, 40 ppm inhaled NO) was 12.15 and the TPR ([1]; Patient 5, 40 ppm inhaled NO) was 6.47. The mPAP ([1]; Patient 5, 40 ppm inhaled NO) was 32.67, the CI ([1]; Patient 6, iNO) was 3.1658 and the CO ([1]; Patient 6, iNO) was 6.3. The PAD ([1]; Patient 6, iNO) was 27, the PAS ([1]; Patient 6, iNO) was 58 and the PCWP ([1]; Patient 6, iNO) was 13. For the same substance, the PVR ([1]; Patient 6, iNO) was 4.3924, the PVR/SVR ([1]; Patient 6, iNO) was 0.3132 and the RA ([1]; Patient 6, iNO) was 12. For the same substance, the RVD ([1]; Patient 6, iNO) was 12, the RVS ([1]; Patient 6, iNO) was 58 and the SVR ([1]; Patient 6, iNO) was 14.023. The TPR ([1]; Patient 6, iNO) was 6.4559, the mPAP ([1]; Patient 6, iNO) was 40.672 and the “PCWP compared to baseline” value ([1]; after inhalation of NO, in some instances) was “increased”. The HR ([2]; Patient 1, 40 ppm inhaled NO) was 84, the “Systemic DBP” value ([2]; Patient 1, 40 ppm inhaled NO) was 66 and the “Systemic SBP” value ([2]; Patient 1, 40 ppm inhaled NO) was 107. For the same substance, the “Systemic mBP” value ([2]; Patient 1, 40 ppm inhaled NO) was 79.68, the HR ([2]; Patient 2, 40 ppm inhaled NO) was 71 and the “Systemic DBP” value ([2]; Patient 2, 40 ppm inhaled NO) was 69. For the same substance, the “Systemic SBP” value ([2]; Patient 2, 40 ppm inhaled NO) was 124, the “Systemic mBP” value ([2]; Patient 2, 40 ppm inhaled NO) was 87.34 and the HR ([2]; Patient 3, 40 ppm inhaled NO) was 75. For the same substance, the “Systemic DBP” value ([2]; Patient 3, 40 ppm inhaled NO) was 57, the “Systemic SBP” value ([2]; Patient 3, 40 ppm inhaled NO) was 108 and the “Systemic mBP” value ([2]; Patient 3, 40 ppm inhaled NO) was 74.01. The HR ([2]; Patient 4, 40 ppm inhaled NO) was 66, the “Systemic DBP” value ([2]; Patient 4, 40 ppm inhaled NO) was 76 and the “Systemic SBP” value ([2]; Patient 4, 40 ppm inhaled NO) was 143. For the same substance, the “Systemic mBP” value ([2]; Patient 4, 40 ppm inhaled NO) was 98.35, the HR ([2]; Patient 5, 40 ppm inhaled NO) was 56 and the “Systemic DBP” value ([2]; Patient 5, 40 ppm inhaled NO) was 51. The “Systemic SBP” value ([2]; Patient 5, 40 ppm inhaled NO) was 97, the “Systemic mBP” value ([2]; Patient 5, 40 ppm inhaled NO) was 65.34 and the HR ([2]; Patient 6, iNO) was 100. The “Systemic DBP” value ([2]; Patient 6, iNO) was 77, the “Systemic SBP” value ([2]; Patient 6, iNO) was 147 and the “Systemic mBP” value ([2]; Patient 6, iNO) was 100.346. For the same substance, the “Syst O2sat” value ([3]; Patient 1, 40 ppm inhaled NO) was 100, the “Syst O2sat” value ([3]; Patient 2, 40 ppm inhaled NO) was 100 and the “Syst O2sat” value ([3]; Patient 3, 40 ppm inhaled NO) was 99. The “Syst O2sat” value ([3]; Patient 4, 40 ppm inhaled NO) was 100, the “Syst O2sat” value ([3]; Patient 5, 40 ppm inhaled NO) was 100 and the “Syst O2sat” value ([3]; Patient 6, iNO) was 100.
